Results from BindingDB's records for doi:10.1021/jm00018a023 (Upjohn, 1995).

Target: T1, Dimer of Gag-Pol polyprotein [489-587] (Human immunodeficiency virus 1, UniProt P12497)
T1 construct: 489-587
Assay: Protease Inhibition Assay
Conditions: pH 5; 22 °C
Description: HIV-1 protease was purified and refolded from E. coli inclusion bodies. The substrate used spans the p17-p24 processing site (R-V-S-Q-N-Y-P-I-V-Q-N-K) and was derivatized with biotin and fluorescein isothiocyanate (FITC) at the amino and carboxy termini. In the presence of HIV-l protease, the substrate is rapidly cleaved into two parts. The biotinylated amino terminal fragment binds to the avidin beads while the FITC-containing carboxy1 terminal fragment is removed through the membrane. […] The bound fluorescence is obtained by processing on an IDEXX Screen Machine. Determination of Ki values with this assay requires analysis under conditions in which substrate concentration resides substantially below Km and the inhibitor concentrations greatly exceeds the Ki value and the enzyme concentration.

Row | SMILES | Ki
1 | CC(C)(C)OC(=O)NCCC(=O)Nc1cccc(C(c2c(O)c3ccccc3oc2=O)C2CC2)c1 (centres undefined) [tert-butyl N-[2-({3-[cyclopropyl(4-hydroxy-2-oxo-2H-chromen-3-yl)methyl]phenyl}carbamoyl)ethyl]carbamate] | 0.086 µM
2 | CCC(c1cccc(C(=O)NCc2nc3ccccc3[nH]2)c1)c1c(O)c2ccccc2oc1=O (centres undefined) [N-(1H-1,3-benzodiazol-2-ylmethyl)-3-[1-(4-hydroxy-2-oxo-2H-chromen-3-yl)propyl]benzamide] | 4.4 µM
3 | CCC(c1cccc(NC(=O)CCNC(=O)OC(C)(C)C)c1)c1c(O)c2ccc(OC)cc2oc1=O (centres undefined) [4-Hydroxy-3-[1-3-[[3-[(tert-butyloxycarbonyl)amino]-1-oxopropyl]amino]phenyl]propyl]-7-methoxycoumarin] | 0.17 µM
4 | CCC(c1cccc(C(=O)N[C@H](C(=O)NCc2ccccn2)C(C)CC)c1)c1c(O)c2ccccc2oc1=O (some centres undefined) [3-[1-(4-Hydroxy-2-oxo-2H-1-benzopyran-3-yl)propyl]-N-[2-methyl-1-[[(2-pyridinylmethyl)amino]carbonyl]butyl]benzamide] | 0.4 µM
